According to patent publication US5675003A, “3-ammoniopropenyl cephalosporin compounds as antibacterial agents” (Korea Institute of Science and Technology, priority 1995, dated 1997):
Values after ≈ are worked out from the molar mass of the structure shown. Where two headings read alike, the source gives them in different places.

Assays:
[1] = test system: Enterobacter cloacae P 99; assay: MIC, in vitro agar dilution method; format: cell-based; settings: for MIC: Enterobacter cloacae, P99
Experimental: (§1) The MICs of the new cephalosporins of the present invention against Gram-positive and Gram-negative bacteria were determined by an in vitro agar dilution method. For comparisons, the MIC values of ceftazidime are also listed.
(§2) In vitro antimicrobial activity of the cephalosporins (l) (MIC:
En.c.1, Enterobacter cloacae P 99;

Salmonella typhimurium = assay: MIC, in vitro agar dilution method; format: cell-based; settings: Salmonella enterica
Experimental: as §1, §2
S.t., Salmonella typhimurium;

E.c.5 = assay: MIC, in vitro agar dilution method; format: cell-based; settings: Escherichia coli, E.c.5 (strain not defined)
Experimental: as §1

[2] = test system: Staphylococcus aureus 285; assay: MIC, in vitro agar dilution method; format: cell-based
Experimental: as §1, §2
E.c. TEM, S.a. 2, Staphylococcus aureus 285;

[3] = test system: Pseudomonas eruginosa 1771; assay: MIC, in vitro agar dilution method; format: cell-based; settings: P.a.3, Pseudomonas eruginosa 1771
Experimental: as §1, §2
P.a.3, Pseudomonas eruginosa 1771;

[4] = test system: Streptococcus pyogenes A 77; assay: MIC, in vitro agar dilution method; format: cell-based; settings: A77
Experimental: as §1, §2
S.p.2, Streptococcus pyogenes A 77;

[5] = test system: Staphlococcus aureus SG 511; assay: MIC, in vitro agar dilution method; format: cell-based
Experimental: as §1, §2
S.a.1, Staphlococcus aureus SG 511;

[6] = test system: Staphylococcus aureus 503; assay: MIC, in vitro agar dilution method; format: cell-based
Experimental: as §1, §2
S.a.3, Staphylococcus aureus 503;

[7] = test system: Pseudomonas aeruginosa 1771 M; assay: MIC, in vitro agar dilution method; format: cell-based
Experimental: as §1, §2
P.a.4, Pseudomonas aeruginosa 1771 M;

Escherichia coli O55 = assay: MIC, in vitro agar dilution method; format: cell-based; settings: E.c.1, Escherichia coli O55
Experimental: as §1, §2
E.c.1, Escherichia coli O55;

[8] = test system: Klebsiella aerogenes 1552 E; assay: MIC, in vitro agar dilution method; format: cell-based
Experimental: as §1, §2
K.a., Klebsiella aerogenes 1552 E;

Streptococcus faecium MD = assay: MIC, in vitro agar dilution method; format: cell-based; settings: Enterococcus faecium
Experimental: as §1, §2
S.f., Streptococcus faecium MD;

Escherichia coli TEM = assay: MIC, in vitro agar dilution method; format: cell-based; settings: E.c.3, Escherichia coli TEM
Experimental: as §1, §2
E.c.3, Escherichia coli TEM;

[9] = test system: Pseudomonas aeruginosa 1592 E; assay: MIC, in vitro agar dilution method; format: cell-based
Experimental: as §1, §2
P.a.2, Pseudomonas aeruginosa 1592 E;

Escherichia coli 1507 E = assay: MIC, in vitro agar dilution method; format: cell-based; settings: E.c.4, Escherichia coli 1507 E
Experimental: as §1, §2
E.c.4, Escherichia coli 1507 E;

[10] = test system: Streptococcus pyogenes 308 A; assay: MIC, in vitro agar dilution method; format: cell-based
Experimental: as §1, §2
S.p.1, Streptococcus pyogenes 308 A;

[11] = test system: Pseudomonas aeruginosa 9027; assay: MIC, in vitro agar dilution method; format: cell-based
Experimental: as §1, §2
P.a.1, Pseudomonas aeruginosa 9027;

[12] = test system: Klebsiella oxytoca 1082 E; assay: MIC, in vitro agar dilution method; format: cell-based
Experimental: as §1, §2
K.o., Klebsiella oxytoca 1082 E;

Escherichia coli DC0 = assay: MIC, in vitro agar dilution method; format: cell-based; settings: E.c.2, Escherichia coli DC0
Experimental: as §1, §2
E.c.2, Escherichia coli DC0;

[13] = test system: Enterobacter cloacae 1321 E; assay: MIC, in vitro agar dilution method; format: cell-based
Experimental: as §1, §2
En.c.2, Enterobacter cloacae 1321 E.

anti-pseudomonal = settings: in words, prior art; cited from earlier work
staphylococci = settings: in words, prior art; cited from earlier work
Enterobacter cloacae P99 = settings: in words, prior art; cited from earlier work
[14] = S.t., Salmonella typhimurium, agar dilution, read-out: MIC
[15] = S.a.2, Staphylococcus aureus 285, agar dilution, read-out: MIC
[16] = S.p.2, Streptococcus pyogenes A 77, agar dilution, read-out: MIC
[17] = S.a.1, Staphlococcus aureus SG 511, agar dilution, read-out: MIC
[18] = S.a.3, Staphylococcus aureus 503, agar dilution, read-out: MIC
[19] = P.a.4, Pseudomonas aeruginosa 1771 M, agar dilution, read-out: MIC
[20] = K.a., Klebsiella aerogenes 1552 E, agar dilution, read-out: MIC
[21] = S.f., Streptococcus faecium MD, agar dilution, read-out: MIC
[22] = P.a.2, Pseudomonas aeruginosa 1592 E, agar dilution, read-out: MIC
[23] = S.p.1, Streptococcus pyogenes 308 A, agar dilution, read-out: MIC
[24] = P.a.1, Pseudomonas aeruginosa 9027, agar dilution, read-out: MIC
[25] = K.o., Klebsiella oxytoca 1082 E, agar dilution, read-out: MIC
[26] = En.c.2, Enterobacter cloacae 1321 E, agar dilution, read-out: MIC

CO/N=C(\C(=O)N[C@@H]1C(=O)N2C(C(=O)[O-])=C(/C=C/C[N+]3(C)CCC(O)CC3)CS[C@H]12)c1csc(N)n1 (stereo partly drawn) [1-g, 7β-[2-(2-Aminothiazol-4-yl)-(Z)-2-methoxyiminoacetamido]-3-[(E)-3-(4-hydroxy-1-methyl-1-piperidinio)-1-propen-1-yl]-3-cephem-4-carboxylate]
MIC [1]: 3.13 µg/mL (≈ 5.83 µM) | MIC (Salmonella typhimurium; [14]): 0.049 µg/mL (≈ 0.0913 µM) | MIC (E.c.5): 0.049 µg/mL (≈ 0.0913 µM) | MIC [2, 15]: 0.78 µg/mL (≈ 1.45 µM) | MIC [3]: 1.56 µg/mL (≈ 2.91 µM) | MIC [4, 16]: 0.013 µg/mL (≈ 0.0242 µM) | MIC [5, 17]: 0.39 µg/mL (≈ 0.727 µM) | MIC [6, 18]: 0.2 µg/mL (≈ 0.373 µM) | MIC [7, 19]: 0.2 µg/mL (≈ 0.373 µM) | MIC (Escherichia coli O55): 0.025 µg/mL (≈ 0.0466 µM) | MIC [8, 20]: 0.025 µg/mL (≈ 0.0466 µM) | MIC (Streptococcus faecium MD; [21]): 50 µg/mL (≈ 93.2 µM) | MIC (Escherichia coli TEM): 0.049 µg/mL (≈ 0.0913 µM) | MIC [9, 22]: 3.13 µg/mL (≈ 5.83 µM) | MIC (Escherichia coli 1507 E): 0.098 µg/mL (≈ 0.183 µM) | MIC [10, 23]: 0.013 µg/mL (≈ 0.0242 µM) | MIC [11, 24]: 6.25 µg/mL (≈ 11.6 µM) | MIC [12, 25]: 3.13 µg/mL (≈ 5.83 µM) | MIC (Escherichia coli DC0): 0.049 µg/mL (≈ 0.0913 µM) | MIC [13, 26]: 0.025 µg/mL (≈ 0.0466 µM)

CO/N=C(\C(=O)N[C@@H]1C(=O)N2C(C(=O)[O-])=C(/C=C/C[N+]3(C)CCCCC3CO)CS[C@H]12)c1csc(N)n1 (some centres unmarked) [1-h]
MIC [1]: 3.13 µg/mL (≈ 5.68 µM) | MIC (Salmonella typhimurium; [14]): 0.025 µg/mL (≈ 0.0454 µM) | MIC (E.c.5): 0.049 µg/mL (≈ 0.089 µM) | MIC [2, 15]: 0.39 µg/mL (≈ 0.708 µM) | MIC [3]: 1.56 µg/mL (≈ 2.83 µM) | MIC [4, 16]: 0.007 µg/mL (≈ 0.0127 µM) | MIC [5, 17]: 0.39 µg/mL (≈ 0.708 µM) | MIC [6, 18]: 0.2 µg/mL (≈ 0.363 µM) | MIC [7, 19]: 0.098 µg/mL (≈ 0.178 µM) | MIC (Escherichia coli O55): 0.013 µg/mL (≈ 0.0236 µM) | MIC [8, 20]: 0.025 µg/mL (≈ 0.0454 µM) | MIC (Streptococcus faecium MD; [21]): 25 µg/mL (≈ 45.4 µM) | MIC (Escherichia coli TEM): 0.025 µg/mL (≈ 0.0454 µM) | MIC [9, 22]: 3.13 µg/mL (≈ 5.68 µM) | MIC (Escherichia coli 1507 E): 0.049 µg/mL (≈ 0.089 µM) | MIC [10, 23]: 0.013 µg/mL (≈ 0.0236 µM) | MIC [11, 24]: 6.25 µg/mL (≈ 11.3 µM) | MIC [12, 25]: 1.56 µg/mL (≈ 2.83 µM) | MIC (Escherichia coli DC0): 0.049 µg/mL (≈ 0.089 µM) | MIC [13, 26]: 0.013 µg/mL (≈ 0.0236 µM)

CON=C(C(=O)NC1C(=O)N2C(C(=O)[O-])=C(C=CC[N+]3(C)C4CCC3CC(O)C4)CSC12)c1csc(N)n1 (stereo not drawn) [1-i, 7β-[2-(2-Aminothiazol-4-yl)-(Z)-2-methoxyiminoacetamido]-3-[(E)-3-tropinio-1-propen-1-yl]-3-cephem-4-carboxylate]
MIC [1]: 6.25 µg/mL (≈ 11.1 µM) | MIC (Salmonella typhimurium; [14]): 0.049 µg/mL (≈ 0.0871 µM) | MIC (E.c.5): 0.049 µg/mL (≈ 0.0871 µM) | MIC [2, 15]: 0.78 µg/mL (≈ 1.39 µM) | MIC [3]: 1.56 µg/mL (≈ 2.77 µM) | MIC [4, 16]: 0.013 µg/mL (≈ 0.0231 µM) | MIC [5, 17]: 0.39 µg/mL (≈ 0.693 µM) | MIC [6, 18]: 0.2 µg/mL (≈ 0.355 µM) | MIC [7, 19]: 0.2 µg/mL (≈ 0.355 µM) | MIC (Escherichia coli O55): 0.025 µg/mL (≈ 0.0444 µM) | MIC [8, 20]: 0.025 µg/mL (≈ 0.0444 µM) | MIC (Streptococcus faecium MD; [21]): 50 µg/mL (≈ 88.9 µM) | MIC (Escherichia coli TEM): 0.025 µg/mL (≈ 0.0444 µM) | MIC [9, 22]: 3.13 µg/mL (≈ 5.56 µM) | MIC (Escherichia coli 1507 E): 0.098 µg/mL (≈ 0.174 µM) | MIC [10, 23]: 0.013 µg/mL (≈ 0.0231 µM) | MIC [11, 24]: 6.25 µg/mL (≈ 11.1 µM) | MIC [12, 25]: 1.56 µg/mL (≈ 2.77 µM) | MIC (Escherichia coli DC0): 0.049 µg/mL (≈ 0.0871 µM) | MIC [13, 26]: 0.025 µg/mL (≈ 0.0444 µM)

CO/N=C(\C(=O)N[C@@H]1C(=O)N2C(C(=O)[O-])=C(C[N+]3(C)CCCC3)CS[C@H]12)c1csc(N)n1 [Cefepime, cefepime]
anti-pseudomonal activity (anti-pseudomonal): high anti-pseudomonal activity | activity against staphylococci (staphylococci): improved anti-staphylococcaI activity

CC(C)(O/N=C(\C(=O)N[C@@H]1C(=O)N2C(C(=O)[O-])=C(C[n+]3ccccc3)CS[C@H]12)c1csc(N)n1)C(=O)O [Ceftazidime, ceftazidime, reference compound]
MIC [1]: 100 µg/mL (≈ 183 µM) | activity against Enterobacter cloacae P99 ([1]; in words): resistant to ceftazidime | MIC (Salmonella typhimurium; TYPHIMURIUM): 0.2 µg/mL (≈ 0.366 µM) | anti-pseudomonal activity (anti-pseudomonal): potent anti-pseudomonal activity | MIC (E.c.5): 0.2 µg/mL (≈ 0.366 µM) | MIC ([2]; Staphylococcus aureus, 285): 12.5 µg/mL (≈ 22.9 µM) | MIC [3]: 0.39 µg/mL (≈ 0.714 µM) | MIC ([4]; Streptococcus pyogenes): 0.049 µg/mL (≈ 0.0896 µM) | MIC [5]: 12.5 µg/mL (≈ 22.9 µM) | MIC ([6]; Staphylococcus aureus, 503): 3.13 µg/mL (≈ 5.73 µM) | MIC ([7]; Pseudomonas aeruginosa, 1771M): 0.098 µg/mL (≈ 0.179 µM) | MIC (Escherichia coli O55): 0.098 µg/mL (≈ 0.179 µM) | MIC ([8]; Klebsiella aerogenes, 1552E): 0.098 µg/mL (≈ 0.179 µM) | MIC (Streptococcus faecium MD): 100 µg/mL (≈ 183 µM) | MIC (Escherichia coli TEM): 0.098 µg/mL (≈ 0.179 µM) | MIC ([9]; Pseudomonas aeruginosa, 1592E): 0.78 µg/mL (≈ 1.43 µM) | MIC (Escherichia coli 1507 E): 0.2 µg/mL (≈ 0.366 µM) | activity against staphylococci (staphylococci): less active against staphylococci | MIC ([10]; Streptococcus pyogenes, 308A): 0.098 µg/mL (≈ 0.179 µM) | MIC ([11]; Pseudomonas aeruginosa, 9027): 3.13 µg/mL (≈ 5.73 µM) | MIC ([12]; Klebsiella oxytoca, 1082E): 0.39 µg/mL (≈ 0.714 µM) | MIC (Escherichia coli DC0): 0.098 µg/mL (≈ 0.179 µM) | activity against Enterobacter cloacae P99 (Enterobacter cloacae P99): less active against staphylococci and Enterobacter cloacae P99 | MIC ([13]; Enterobacter cloacae, 1321E): 0.025 µg/mL (≈ 0.0457 µM)
